This passage reports saturation concentration results from patent US7004171B2, “System for transvaginal drug delivery” (Hi-Gienic Intra Vaginal Technologies Ltd., priority 2002, dated 2006).

The structures appear in SMILES notation.

For this data set the following is noted: Sorensen buffer pH 7.4, 37° C., 24 hours agitation, excess drug. From the text: The release medium used for these experiments was the Sorensen-Walbum buffer, chosen here due to its lack of absorbance in the UV range, thus causing less interference with the analytical drug detection process. The buffer consisted of glycine (0.1 M) and NaCl (0.1 M), adjusted to pH 7.4 with NaOH (0.1M).

Compound `CC(C)Cc1ccc(C(C)C(=O)O)cc1` (stereo not shown) [Ibuprofen] displayed a saturation concentration of 100 µg/mL.
